Experiment [1] relates to NF-kB. In words: NF-kB luciferase reporter activity in LPS-stimulated U937-kBluc cells. The conditions noted are these: for IC50: Homo sapiens, U937-kBluc cells, LPS 0.3 μg/ml, 6 hours, mean of duplicate determinations ±SD, read-out: IC50 for inhibition of LPS-induced NF-kB activity. The experiment is classed as cell-based, human. As to the method: U937-kBluc cells were cultured in a 96 well plate (2×10^4 cells in 100 μl in each well) and stimulated with 0.3 μg/ml LPS (lipopolysaccaride; Sigma Aldrich). After 6 hours, cells were collected and luciferase activity determined using the luclite reagent (Perkin Elmer UK, Beaconsfield, UK) and a Packard TopCount (Perkin Elmer), as described by the manufacturer. To determine the effect of SFZ and analogues, various concentrations of each compound or an equivalent amount of DMSO as a solvent control were added 1 hour prior to addition of LPS. Each determination was made in triplicate. A cell line containing an NF-kB reporter construct was used to determine the effects of SFZ analogues on NF-kB activity. Cells were treated with LPS to induce NF-kB activity in the presence or absence of each compound, or DMSO as a solvent control, and luciferase activity analysed as a measure of NF-kB dependent transcription (FIG. 1). […] U937-kBluc cells were treated with LPS to activate NF-kB in the presence of increasing concentrations of SFZ, derivatives (3a-f), or DMSO as a solvent control. For each concentration of compound, the percentage inhibition of luciferase activity relative to cells treated with an equivalent amount of DMSO was calculated. (A) Representative dose response experiment (♦, 3a; ▪, SFZ). Each data point is the mean of triplicate samples (±SEM). (B) Detailed dose response assays were performed for compounds which gave >50% inhibition at 2 mM. The mean IC50 value (±SD) for inhibition of LPS-induced NF-kB activity is derived from 2 independent experiments, each performed in triplicate.
(In a reporter assay the amount or activity of a reporter protein is the signal.)

The subject of experiment [2] is IkB-α promoter. In words: IkB-α promoter luciferase activity in transfected activated HSC. Conditions: 24 hours, rat HSC; for inhibition of IkB-α promoter activity compared with SFZ 1 mM: 3a 0.150 mM, 3e 0.127 mM, 3f 0.089 mM (at IC50). It is filed as cell-based. As to the method:
For HSC transfections, activated HSC were transfected by the non-liposomal Effectene protocol (Qiagen, UK) using 1 μg reporter plasmid DNA and 10 ng of control Renilla plasmid pRLTK (Promega, Southampton, UK) according to the manufacturer's instructions. After 24 hours, HSC were treated with test compounds for a further 24 hours. Luciferase assays were performed using a dual luciferase kit (Promega) according to the manufacturer's instructions. Firefly luciferase activities were normalised for differences in transfection efficiency by measurement of the activity of the co-transfected pRLTK. The pIκBα wt-Luc plasmid contains nucleotides −332 to +35 of the human IkB-α promoter cloned upstream of luciferase gene (Oakley F, et al, J Biol Chem 2003; 278: 24359-70). The pTIMP1-Luc plasmid contains the 162 bp human TIMP1 minimal promoter cloned upstream of luciferase gene (Bertrand-Philippe M, et al. J Biol Chem 2004; 279: 24530-9). The pAP1-Luc plasmid (Stratagene, UK) contains 7 copies of a consensus AP-1 binding site upstream of the minimal promoter and the luciferase gene.
To extend these findings, further analyses were performed using the […] promoter which contains multiple NF-kB binding sites and is a well studied NF-kB target. […] Consistent with the presence of activated NF-kB in HSC, (Wright M C et al, Gastroenterology 2001; 121: 685-98.) the IkB-α promoter was activated in HSC (FIG. 2a). SFZ (1 mM) inhibited promoter activity by >60%. […] Therefore, the improved inhibitory activity of analogues 3a, 3e and 3f is specific for NF-kB mediated transcription and is not restricted to U937 cells or artificial promoter constructs.
Rat HSC were transfected with (A) IkB-α-Luc, (B) TIMP1-Luc or (C) pAP-1-Luc reporter constructs. After 24 hours, cells were treated with sulfasalazine (1 mM), 3a (0.150 mM), 3e (0.127 mM), 3f (0.089 mM), or treated with DMSO as a control. Luciferase activity was determined after another 24 hours. Data presented are mean luciferase activity (±SEM) relative to control cells (value set to 100), derived from two separate experiments, each performed in duplicate and using an independent preparation of HSC.

In experiment [3] the test system is ARH77 cells. In words: Cell death in ARH77 cells, propidium iodide flow cytometry. It is filed as cell-based. The conditions noted are these: Homo sapiens, ARH-77; 20 hours, PI uptake; mean of two determinations ±SD; read-out: IC50 for induction of ARH77 cell death. The procedure:
A flow cytometry method was used to determine the ability of SFZ analogues to induce cell death in ARH77 cells. The proportion of cells that had lost plasma membrane integrity was used as a measure of cell viability. ARH77 (5×10^4) cells were incubated in a volume of 200 μl in 96 well plates with compound, an equivalent amount of DMSO or were left untreated as a control. After 20 hours, cells were washed in phosphate buffered saline (PBS), resuspended in PBS containing 1 μg/ml propidium iodide (PI) for 10 minutes. Cells were analysed using a FACSCalibur (BD Biosciences, Oxford, UK) using the FL2 channel. […] The proportion of cells with intense fluorescence as a proportion of total cells was calculated.
To assess cell death promoting activity, the ability of SFZ and the analogues with enhanced NF-kB inhibiting activity (3a, 3e and 3f) to kill Epstein-Barr virus transformed human B-cells, which are dependent on NF-kB for survival was compared (Cahir-McFarland E D, Carter K, Rosenwald A, et al. Role of NF-kB in cell survival and transcription of latent membrane protein 1-expressing or Epstein-Barr virus latency III-infected cells. J Virol 2004; 78: 4108-4119). […] Dose response experiments were performed to determine IC50 values (FIG. 4b).
ARH77 cells were incubated with various concentrations of SFZ, compounds 3a, 3e and 3f, DMSO as a solvent control, or were left untreated. […] (A) Representative histogram of fluorescence in untreated, DMSO or compound 3e (250 μM) treated cells. (B) Representative dose response experiment (□, untreated; ♦, DMSO; ▴, SFZ; ●, 3a; +, 3e; ×, 3f). Each data point is the mean of duplicate determinations (±SD). (C) Mean IC50 values (±SD) for induction of ARH77 cell death, derived from two independent experiments each performed in duplicate.
A general note: Flow cytometry measures light scatter and fluorescence of single cells or particles in a stream.

For the compound `COc1ccc(CNS(=O)(=O)c2ccc(/N=N/c3ccc(O)c(C(=O)O)c3)cc2)cc1` [Compound 3a, 2-hydroxy-5-[4-(4-methoxy-benzylsulfamoyl)-phenylazo]-benzoic acid], the IC50 (as a rule, the midpoint of a concentration-inhibition curve) in experiment [1] was 150 ± 27 µM; in experiment [3], 499 ± 93 µM. Also, in experiment [1] (NF-kB inhibition, LPS treated U937 cells), the “improved inhibitory activity relative to SFZ” value turned out to be 7 fold. The “inhibition of IkB-α promoter activity compared with SFZ 1 mM” value (“inhibition … compared with SFZ 1 mM” below) in experiment [2] was “approximately equally effective”.

On to `Cc1cc(/N=N/c2ccc(S(=O)(=O)NCc3ccc(C(F)(F)F)cc3)cc2)cc(C(=O)O)c1O` [Compound 3e, 2-hydroxy-3-methyl-5-[4-(4-trifluoromethyl-benzylsulfamoyl)-phenylazo]-benzoic acid], for which the results for the IC50 in experiment [1] and in experiment [3] were 127 ± 19 µM and 195 ± 38 µM, respectively. Also, the “inhibition … compared with SFZ 1 mM” value in experiment [2] is “approximately equally effective”.

As to `O=C(O)c1cc(/N=N/c2ccc(S(=O)(=O)NCc3ccc(C(F)(F)F)cc3)cc2)ccc1O` [Compound 3f, 2-hydroxy-5-[4-(4-trifluoromethyl-benzylsulfamoyl)-phenylazo]-benzoic acid], the IC50 in experiment [1] turned out to be 89 ± 26 µM; in experiment [3], 407 ± 11 µM. The “inhibition … compared with SFZ 1 mM” value in experiment [2] is listed as “approximately equally effective”.

Regarding `O=C(O)c1cc(/N=N/c2ccc(S(=O)(=O)Nc3ccccn3)cc2)ccc1O` [SFZ, Sulfasalazine, reference compound], the IC50 in experiment [1] amounted to 1190 ± 96 µM; in experiment [3] it was 1100 ± 250 µM. Moreover, the inhibition – broadly, the drop in the measured response relative to a control, in per cent – at 1000 µM in experiment [2] (SFZ 1 mM) was over 60%.

The values above are taken from US20080090788A1, “Chemical Compounds” (priority 2005, published 2008).
